# In patent publication US12233161B1, “Lipids and lipid nanoparticle formulations” (LONGUIDE BIOPHARMA CORPORATION, priority 2024, dated 2025):
# Key:
# mice = assay: In vivo delivery of FLuc-mRNA lipid nanoparticles in mice, in vivo imaging (IVIS); settings: for IVIS: Fluc-mRNA
# In short: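 Mice (n=3) received about 75 μL FLuc-mRNA LNP per mouse intramuscularly (rectus femoris), intravenously (tail vein), intraperitoneally or subcutaneously (back). After injection, D-luciferin (200 μL, 15 mg/mL) was given i.p. 10-15 min before IVIS imaging.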
# [1] = Particle size and PDI of nucleic acid lipid nanoparticle preparations by dynamic light scattering; format: physicochemical
# In short: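 Nanoparticle suspension (about 0.04 mg/mL mRNA) diluted in ultrapure water, mixed by gentle pipetting; particle size measured by dynamic light scattering. Zeta potential measured on the recovered sample after further dilution in ultrapure water.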
# [2] = Potential characterization of nucleic acid lipid nanoparticle preparations; format: physicochemical
# Experimental: 20 μL of the nucleic acid lipid nanoparticle solution (containing about 0.04 mg/mL mRNA) was taken and added with 780 μL of ultrapure water, used a pipette tip to gently blow and mix, and the potential of the nanopreparation was detected by Malvern particle sizer (model ZEN3700).
# 27.5 μL nucleic acid lipid nanoparticle solution (containing about 0.04 mg/mL mRNA) was taken and added with 200 μL ultrapure water. A pipette tip was used to gently blow the sample and mix well. The particle size of the nanopreparation was detected by Malvern Dynamic Light Scattering Instrument (Malvern Instruments Ltd., ZEN3700, UK). After the detection, the sample was recovered to an EP tube, and 600 μL of ultrapure water was added, gently blown with a pipette tip, and the potential of the nanopreparation was measured by a Malvern particle size meter.
# [3] = IM, DMG-PEG2000:DSPC:Chol:compound 1.40:11.15:38.95:48.50, N/P 20
# [4] = IV, organ not given, DMG-PEG2000:DSPC:Chol:compound 1.40:11.15:38.95:48.50, N/P 20
# [5] = DMG-PEG2000:DSPC:Chol:compound 1.40:11.15:38.95:48.50, N/P 20
# [6] = IM, DMG-PEG2000:DSPC:Chol:compound 1.40:11.15:38.95:48.50, N/P 30
# [7] = IV, organ not given, DMG-PEG2000:DSPC:Chol:compound 1.40:11.15:38.95:48.50, N/P 30
# [8] = DMG-PEG2000:DSPC:Chol:compound 1.40:11.15:38.95:48.50, N/P 30
# [9] = IV, body, DMG-PEG2000:DSPC:Chol:compound 1.40:11.15:38.95:48.50, N/P 30
# [10] = IV, liver, DMG-PEG2000:DSPC:Chol:compound 1.40:11.15:38.95:48.50, N/P 30
# [11] = IV, lung, DMG-PEG2000:DSPC:Chol:compound 1.40:11.15:38.95:48.50, N/P 30
# [12] = IV, spleen, DMG-PEG2000:DSPC:Chol:compound 1.40:11.15:38.95:48.50, N/P 30
# [13] = IV, liver, DMG-PEG2000:DSPC:Chol:compound 1.40:11.15:38.95:48.50, N/P 20
# [14] = IV, lung, DMG-PEG2000:DSPC:Chol:compound 1.40:11.15:38.95:48.50, N/P 20
# [15] = IV, spleen, DMG-PEG2000:DSPC:Chol:compound 1.40:11.15:38.95:48.50, N/P 20
Structure (SMILES),IVIS (mice; [3]),IVIS (mice; [4]),"PDI [1, 5]","Particle size (nm) [1, 5] [nm]","Zeta potential (mV) [2, 5] [mV]",IVIS (mice; [6]),"PDI [1, 8]","Particle size (nm) [1, 8] [nm]","Zeta potential (mV) [2, 8] [mV]",IVIS (mice; [9]),% of organ targeting (mice; [10]) [%],IVIS (mice; [10]),% of organ targeting (mice; [11]) [%],IVIS (mice; [11]),% of organ targeting (mice; [12]) [%],IVIS (mice; [12]),also measured
CCCCCCCCCCOC(=O)C(O)CN(CCOCCN(CC(O)C(=O)OCCCCCCCCCC)CC(O)C(=O)OCCCCCCCCCC)CC(O)C(=O)OCCCCCCCCCC (centres unmarked) [Compound L0314],3.31E+05,2.35E+05,0.26,559.3,11.33,–,–,–,–,–,–,–,–,–,–,–,–
CCCCCCCCCCOC(=O)C(O)CN(C)CCCN(C)CCCN(C)CC(O)C(=O)OCCCCCCCCCC (centres unmarked) [Compound L0315],–,–,–,–,–,8.43E+05,0.13,141.63,12.5,–,–,–,–,–,–,–,IVIS (mice; [7]): 5.00E+05
CCCCCCOC(C)OCCCCCCOC(=O)C(O)CN(CCCN(C)CCCN(CC(O)C(=O)OCCCCCCOC(C)OCCCCCC)CC(O)C(=O)OCCCCCCOC(C)OCCCCCC)CC(O)C(=O)OCCCCCCOC(C)OCCCCCC (centres unmarked) [Compound L0316],–,–,–,–,–,4.46E+06,0.12,125.9,18.97,–,–,–,–,–,–,–,IVIS (mice; [7]): 3.53E+08
CCCCCCCC/C=C\CCCCCCCCNC(=O)C(O)CN(CCCN(C)CCCN(CC(O)C(=O)NCCCCCCCC/C=C\CCCCCCCC)CC(O)C(=O)NCCCCCCCC/C=C\CCCCCCCC)CC(O)C(=O)NCCCCCCCC/C=C\CCCCCCCC (centres unmarked) [Compound L0317],–,–,–,–,–,1.53E+06,0.15,117.83,13.53,3.60E+07,3.15,2.78E+06,79.76,7.03E+07,17.09,1.51E+07,–
CCCCCCCCCCOC(=O)C(O)CN(CCCCCN(CC(O)C(=O)OCCCCCCCCCC)CC(O)C(=O)OCCCCCCCCCC)CC(O)C(=O)OCCCCCCCCCC (centres unmarked) [Compound L0318],5.83E+05,2.09E+05,0.25,571.13,11.23,–,–,–,–,–,–,–,–,–,–,–,–
CCCCCCCCCCCCOC(=O)C(O)CN(CCCCCN(CC(O)C(=O)OCCCCCCCCCCCC)CC(O)C(=O)OCCCCCCCCCCCC)CC(O)C(=O)OCCCCCCCCCCCC (centres unmarked) [Compound L0319],7.22E+05,1.32E+06,0.13,172.83,11.20,–,–,–,–,–,–,–,–,–,–,–,–
CCCCCCCCCCNC(=O)C(O)CN(CCCCCN(CC(O)C(=O)NCCCCCCCCCC)CC(O)C(=O)NCCCCCCCCCC)CC(O)C(=O)NCCCCCCCCCC (centres unmarked) [Compound L0320],1.45E+05,6.60E+05,0.10,120.33,10.39,–,–,–,–,–,–,–,–,–,–,–,–
CCCCCCCCCCOC(=O)C(O)CN(CCCCCCCN(CC(O)C(=O)OCCCCCCCCCC)CC(O)C(=O)OCCCCCCCCCC)CC(O)C(=O)OCCCCCCCCCC (centres unmarked) [Compound L0321],1.37E+05,2.11E+05,0.48,207.73,−0.61,–,–,–,–,–,–,–,–,–,–,–,–
CCCCCCCCCCCCOC(=O)C(O)CN(CCCCCCCN(CC(O)C(=O)OCCCCCCCCCCCC)CC(O)C(=O)OCCCCCCCCCCCC)CC(O)C(=O)OCCCCCCCCCCCC (centres unmarked) [Compound L0322],8.23E+05,2.72E+05,0.40,260.70,9.14,–,–,–,–,–,–,–,–,–,–,–,–
CCCCCCCCCCNC(=O)C(O)CN(CCCCCCCN(CC(O)C(=O)NCCCCCCCCCC)CC(O)C(=O)NCCCCCCCCCC)CC(O)C(=O)NCCCCCCCCCC (centres unmarked) [Compound L0323],7.24E+05,–,0.14,94.78,8.37,–,–,–,–,–,–,–,–,–,–,–,"IVIS (mice; IV, body, DMG-PEG2000:DSPC:Chol:compound 1.40:11.15:38.95:48.50, N/P 20): 2.95E+06; % of organ targeting (mice; [13]): 44.01%; IVIS (mice; [13]): 8.40E+05; % of organ targeting (mice; [14]): 6.06%; IVIS (mice; [14]): 1.16E+05; % of organ targeting (mice; [15]): 49.93%; IVIS (mice; [15]): 9.53E+05"
CCCCCCCCCCOC(=O)C(O)CN(CCOCCOCCN(CC(O)C(=O)OCCCCCCCCCC)CC(O)C(=O)OCCCCCCCCCC)CC(O)C(=O)OCCCCCCCCCC (centres unmarked) [Compound L0324],4.15E+05,7.27E+05,0.47,445.20,5.44,–,–,–,–,–,–,–,–,–,–,–,–
CCCC/C=C\CCOCOCCCCOC(=O)C(O)CN(CCN(C)CCN(CC(O)C(=O)OCCCCOCOCC/C=C\CCCC)CC(O)C(=O)OCCCCOCOCC/C=C\CCCC)CC(O)C(=O)OCCCCOCOCC/C=C\CCCC (centres unmarked) [Compound L0335],–,–,–,–,–,1.99E+06,0.19,110.13,14.07,9.08E+07,37.57,1.92E+07,2.72,1.39E+06,59.71,3.05E+07,–
CCCCCCC(CCCCCC)C(=O)OCCCCCCOC(=O)C(O)CN(CCN(C)CCN(CC(O)C(=O)OCCCCCCOC(=O)C(CCCCCC)CCCCCC)CC(O)C(=O)OCCCCCCOC(=O)C(CCCCCC)CCCCCC)CC(O)C(=O)OCCCCCCOC(=O)C(CCCCCC)CCCCCC (centres unmarked) [Compound L0336],–,–,–,–,–,1.51E+08,0.13,78.38,4.21,9.63E+08,87.42,1.95E+08,0.71,1.59E+06,11.87,2.65E+07,–
CCCCCCCCCCOC(=O)C(O)CN(CCN(C)CCN(CC(O)C(=O)OCCCCCCCCCC)CC(O)C(=O)OCCCCCCCCCC)CC(O)C(=O)OCCCCCCCCCC (centres unmarked) [Compound L0337],–,–,–,–,–,3.70E+05,0.2,102.07,28.07,2.05E+07,8.23,2.66E+06,2.94,9.51E+05,88.83,2.87E+07,–
CCCCCCCCCCCCCCOC(=O)C(O)CN(CCN(C)CCN(CC(O)C(=O)OCCCCCCCCCCCCCC)CC(O)C(=O)OCCCCCCCCCCCCCC)CC(O)C(=O)OCCCCCCCCCCCCCC (centres unmarked) [Compound L0338],–,–,–,–,–,3.98E+05,0.22,96.63,19.13,8.55E+06,11.14,8.81E+05,3.68,2.91E+05,85.18,6.73E+06,–
CCCCCCCCCCOC(=O)C(O)CN(CCCN(CC(O)C(=O)OCCCCCCCCCC)CC(O)C(=O)OCCCCCCCCCC)CCCN(CC(O)C(=O)OCCCCCCCCCC)CC(O)C(=O)OCCCCCCCCCC (centres unmarked) [Compound L0339],–,–,–,–,–,8.33E+07,0.15,126.63,12.37,5.92E+07,28.78,1.17E+07,0.41,1.67E+05,70.81,2.87E+07,–
